According to PubChem BioAssay (NCI):
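Exposure lasted 48 hours, with cells grown in 96-well plates and compounds tested at five concentrations. The concentration for full growth arrest is given as TGI.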

Tests used:
Test in all cases: NCI tumour cell line growth inhibition, 48 h
MOLT-4 leukemia = tested on: MOLT-4 leukemia
XF 498 CNS = tested on: XF 498 CNS
KM12 colon = tested on: KM12 colon
HCT-116 colon = tested on: HCT-116 colon
786-0 renal = tested on: 786-0 renal
NCI/ADR-RES ovarian = tested on: NCI/ADR-RES ovarian
A498 renal = tested on: A498 renal
HOP-92 NSCLC = tested on: HOP-92 NSCLC
NCI-H460 lung = tested on: NCI-H460 lung
NCI-H23 lung = tested on: NCI-H23 lung
HCC-2998 colon = tested on: HCC-2998 colon
SNB-75 CNS = tested on: SNB-75 CNS
RXF 393 renal = tested on: RXF 393 renal
DMS 114 small cell lung = tested on: DMS 114 small cell lung
CCRF-CEM leukemia = tested on: CCRF-CEM leukemia
HOP-18 NSCLC = tested on: HOP-18 NSCLC
MALME-3M melanoma = tested on: MALME-3M melanoma
SK-MEL-5 melanoma = tested on: SK-MEL-5 melanoma
TK-10 renal = tested on: TK-10 renal
A549 NSCLC = tested on: A549 NSCLC
HS 578T breast = tested on: HS 578T breast
MCF7 breast = tested on: MCF7 breast
DU-145 prostate = tested on: DU-145 prostate
K-562 leukemia = tested on: K-562 leukemia
NCI-H522 lung = tested on: NCI-H522 lung
PC-3 prostate = tested on: PC-3 prostate
UACC-62 melanoma = tested on: UACC-62 melanoma
EKVX NSCLC = tested on: EKVX NSCLC
OVCAR-3 ovarian = tested on: OVCAR-3 ovarian
P388/ADR leukemia = tested on: P388/ADR leukemia
SN12K1 renal = tested on: SN12K1 renal
KM20L2 colon = tested on: KM20L2 colon
DLD-1 colon = tested on: DLD-1 colon
OVCAR-8 ovarian = tested on: OVCAR-8 ovarian
BT-549 breast = tested on: BT-549 breast
SF-268 CNS = tested on: SF-268 CNS
LOX IMVI melanoma = tested on: LOX IMVI melanoma
P388 leukemia = tested on: P388 leukemia
SK-OV-3 ovarian = tested on: SK-OV-3 ovarian
U251 CNS = tested on: U251 CNS
MDA-MB-231 breast = tested on: MDA-MB-231 breast
T-47D breast = tested on: T-47D breast
IGROV1 ovarian = tested on: IGROV1 ovarian
HT29 colon = tested on: HT29 colon
NCI-H226 lung = tested on: NCI-H226 lung
COLO 205 colon = tested on: COLO 205 colon
HCT-15 colon = tested on: HCT-15 colon
SK-MEL-2 melanoma = tested on: SK-MEL-2 melanoma
MDA-N = tested on: MDA-N
DMS 273 small cell lung = tested on: DMS 273 small cell lung
HOP-62 NSCLC = tested on: HOP-62 NSCLC
M19-MEL melanoma = tested on: M19-MEL melanoma
MDA-MB-435 = tested on: MDA-MB-435
SNB-78 CNS = tested on: SNB-78 CNS
SF-539 CNS = tested on: SF-539 CNS
RPMI-8226 leukemia = tested on: RPMI-8226 leukemia
HL-60(TB) leukemia = tested on: HL-60(TB) leukemia
SW-620 colon = tested on: SW-620 colon
UACC-257 melanoma = tested on: UACC-257 melanoma
SN12C renal = tested on: SN12C renal
OVCAR-5 ovarian = tested on: OVCAR-5 ovarian
OVCAR-4 ovarian = tested on: OVCAR-4 ovarian
UO-31 renal = tested on: UO-31 renal
ACHN renal = tested on: ACHN renal
SF-295 CNS = tested on: SF-295 CNS
SNB-19 CNS = tested on: SNB-19 CNS
CAKI-1 renal = tested on: CAKI-1 renal
M14 melanoma = tested on: M14 melanoma
SK-MEL-28 melanoma = tested on: SK-MEL-28 melanoma

## CCCCCCCCOC(=O)c1cc([N+](=O)[O-])c(Sc2ncnc3nc[nH]c23)c([N+](=O)[O-])c1
MOLT-4 leukemia
  TGI: 16.2 µM
XF 498 CNS
  TGI: 2.24 µM
KM12 colon
  TGI: 18 µM
HCT-116 colon
  TGI: 5.35 µM
786-0 renal
  TGI: > 37.2 µM
NCI/ADR-RES ovarian
  TGI: 25.7 µM
A498 renal
  TGI: 44.9 µM
HOP-92 NSCLC
  TGI: 6.32 µM
NCI-H460 lung
  TGI: 17.4 µM
NCI-H23 lung
  TGI: 11.7 µM
HCC-2998 colon
  TGI: 16.2 µM
SNB-75 CNS
  TGI: 9.27 µM
RXF 393 renal
  TGI: > 47.6 µM
DMS 114 small cell lung
  TGI: 1.81 µM
CCRF-CEM leukemia
  TGI: 2.68 µM
HOP-18 NSCLC
  TGI: 11.1 µM
MALME-3M melanoma
  TGI: 19.9 µM
SK-MEL-5 melanoma
  TGI: 18.4 µM
TK-10 renal
  TGI: 8.58 µM
A549 NSCLC
  TGI: 27.3 µM
HS 578T breast
  TGI: 70.9 µM
MCF7 breast
  TGI: 12.1 µM
DU-145 prostate
  TGI: 18.6 µM
K-562 leukemia
  TGI: 7.8 µM
NCI-H522 lung
  TGI: 2.41 µM
PC-3 prostate
  TGI: 13.8 µM
UACC-62 melanoma
  TGI: 17 µM
EKVX NSCLC
  TGI: 26.8 µM
OVCAR-3 ovarian
  TGI: 4.01 µM
P388/ADR leukemia
  TGI: 0.458 µM
SN12K1 renal
  TGI: 2.64 µM
KM20L2 colon
  TGI: 9.22 µM
DLD-1 colon
  TGI: 2.94 µM
OVCAR-8 ovarian
  TGI: 10.1 µM
BT-549 breast
  TGI: 25.7 µM
SF-268 CNS
  TGI: 8.47 µM
LOX IMVI melanoma
  TGI: 1.24 µM
P388 leukemia
  TGI: 0.447 µM
SK-OV-3 ovarian
  TGI: 25.3 µM
U251 CNS
  TGI: 17.3 µM
MDA-MB-231 breast
  TGI: > 31.6 µM
T-47D breast
  TGI: 3.31 µM
IGROV1 ovarian
  TGI: 16 µM
HT29 colon
  TGI: 4.87 µM
NCI-H226 lung
  TGI: 13.5 µM
COLO 205 colon
  TGI: 3.68 µM
HCT-15 colon
  TGI: 20.6 µM
SK-MEL-2 melanoma
  TGI: 17.7 µM
MDA-N
  TGI: 22.5 µM
DMS 273 small cell lung
  TGI: 1.57 µM
HOP-62 NSCLC
  TGI: 21.8 µM
M19-MEL melanoma
  TGI: 12.9 µM
MDA-MB-435
  TGI: > 38.4 µM
SNB-78 CNS
  TGI: 10.5 µM
SF-539 CNS
  TGI: 5.8 µM
RPMI-8226 leukemia
  TGI: 8.54 µM
HL-60(TB) leukemia
  TGI: 9.82 µM
SW-620 colon
  TGI: 8.31 µM
UACC-257 melanoma
  TGI: 28 µM
SN12C renal
  TGI: 7.34 µM
OVCAR-5 ovarian
  TGI: 13.8 µM
OVCAR-4 ovarian
  TGI: 13.5 µM
UO-31 renal
  TGI: 19.9 µM
ACHN renal
  TGI: 10.2 µM
SF-295 CNS
  TGI: 11.2 µM
SNB-19 CNS
  TGI: 32.9 µM
CAKI-1 renal
  TGI: 17.7 µM
M14 melanoma
  TGI: 26.9 µM
SK-MEL-28 melanoma
  TGI: 42.8 µM
